Experimental data from article PMC5218480 (PLoS ONE, 2017).

System: MV-4-11 cells
Experiment: Gene expression microarray analysis (Affymetrix PrimeView) and GSEA
Format: cell-based, human
Parameters: RFU PODN (11730768_x_at) / Fold change /veh PODN (11730768_x_at) / RFU LINC00158 (11744669_a_at) / Fold change /veh LINC00158 (11744669_a_at) / RFU DUSP10 (11751237_a_at) / Fold change /veh DUSP10 (11751237_a_at) / RFU ID3 (11757404_x_at) / Fold change /veh ID3 (11757404_x_at) / RFU PLEKHG5 (11737974_s_at) / Fold change /veh PLEKHG5 (11737974_s_at) / RFU LRRC4B (11730491_at) / Fold change /veh LRRC4B (11730491_at) / RFU GIMAP4 (11747438_a_at) / Fold change /veh GIMAP4 (11747438_a_at) / RFU KRT8 (11758183_x_at) / Fold change /veh KRT8 (11758183_x_at) / RFU CNN1 (11734310_a_at) / Fold change /veh CNN1 (11734310_a_at) / RFU VPS37D (11726825_at) / Fold change /veh VPS37D (11726825_at) / RFU C10orf10 (11716522_x_at) / Fold change /veh C10orf10 (11716522_x_at) / RFU KIR2DL2 /// KIR2DL4 /// KIR2DL5A /// KIR2DL5B /// KIR2DS1 /// KIR2DS2 /// KIR2DS3 /// KIR2DS4 /// KIR3DL3 /// KIR3DL3 /// KIR3DS1 (11738374_at) / Fold change /veh KIR2DL2 /// KIR2DL4 /// KIR2DL5A /// KIR2DL5B /// KIR2DS1 /// KIR2DS2 /// KIR2DS3 /// KIR2DS4 /// KIR3DL3 /// KIR3DL3 /// KIR3DS1 (11738374_at) / RFU C1QL1 (11718748_at) / Fold change /veh C1QL1 (11718748_at) / RFU TMPRSS4 (11747572_a_at) / Fold change /veh TMPRSS4 (11747572_a_at) / RFU HAMP (11756126_x_at) / Fold change /veh HAMP (11756126_x_at) / RFU RNFT2 (11725882_a_at) / Fold change /veh RNFT2 (11725882_a_at) / RFU NR4A2 (11747474_a_at) / Fold change /veh NR4A2 (11747474_a_at) / RFU ABCC12 (11746883_a_at) / Fold change /veh ABCC12 (11746883_a_at) / RFU TMEM136 (11760407_x_at) / Fold change /veh TMEM136 (11760407_x_at) / RFU CLDN22 /// WWC2 (11732394_at) / Fold change /veh CLDN22 /// WWC2 (11732394_at) / RFU HLA-DPB1 (11760878_x_at) / Fold change /veh HLA-DPB1 (11760878_x_at) / RFU SPINT1 (11716480_a_at) / Fold change /veh SPINT1 (11716480_a_at) / RFU GAP43 (11754022_s_at) / Fold change /veh GAP43 (11754022_s_at) / RFU A4GNT (11735810_at) / Fold change /veh A4GNT (11735810_at) / RFU PRB3 (11715151_x_at) / Fold change /veh PRB3 (11715151_x_at) / RFU TUBB4B (11761932_at) / Fold change /veh TUBB4B (11761932_at) / RFU CAPN14 (11732068_a_at) / Fold change /veh CAPN14 (11732068_a_at) / RFU TMCC2 (11721928_a_at) / Fold change /veh TMCC2 (11721928_a_at) / RFU IRGQ (11745062_a_at) / Fold change /veh IRGQ (11745062_a_at) / RFU FAM174B (11720279_a_at) / Fold change /veh FAM174B (11720279_a_at) / RFU TMPRSS4 (11748680_a_at) / Fold change /veh TMPRSS4 (11748680_a_at) / RFU FAM212B (11763350_a_at) / Fold change /veh FAM212B (11763350_a_at) / RFU PLEKHG5 (11743358_a_at) / Fold change /veh PLEKHG5 (11743358_a_at) / RFU ZSCAN30 (11745921_a_at) / Fold change /veh ZSCAN30 (11745921_a_at) / RFU CMKLR1 (11741424_a_at) / Fold change /veh CMKLR1 (11741424_a_at) / RFU LOC101060620 /// MAPK8IP1 (11723275_at) / Fold change /veh LOC101060620 /// MAPK8IP1 (11723275_at) / RFU SPTSSB (11747773_x_at) / Fold change /veh SPTSSB (11747773_x_at) / RFU PRSS12 (11739890_at) / Fold change /veh PRSS12 (11739890_at) / RFU BIN1 (11741810_x_at) / Fold change /veh BIN1 (11741810_x_at) / RFU WNT11 (11732464_a_at) / Fold change /veh WNT11 (11732464_a_at) / RFU C10orf10 (11716521_a_at) / Fold change /veh C10orf10 (11716521_a_at) / RFU C5orf56 (11738089_at) / Fold change /veh C5orf56 (11738089_at) / RFU CYB561 (11721691_x_at) / Fold change /veh CYB561 (11721691_x_at) / RFU ANKRD19P (11752326_a_at) / Fold change /veh ANKRD19P (11752326_a_at) / RFU OR2T12 /// OR2T33 /// OR2T8 (11738714_s_at) / Fold change /veh OR2T12 /// OR2T33 /// OR2T8 (11738714_s_at) / RFU VCAN (11748164_a_at) / Fold change /veh VCAN (11748164_a_at) / RFU JSRP1 (11732532_at) / Fold change /veh JSRP1 (11732532_at) / RFU KRTAP10-11 (11738290_x_at) / Fold change /veh KRTAP10-11 (11738290_x_at) / RFU MYO3A (11730013_a_at) / Fold change /veh MYO3A (11730013_a_at) / RFU EBF3 (11725865_a_at) / Fold change /veh EBF3 (11725865_a_at) / RFU CAMK2N1 (11719241_x_at) / Fold change /veh CAMK2N1 (11719241_x_at) / RFU C5orf56 (11738088_a_at) / Fold change /veh C5orf56 (11738088_a_at) / RFU OLFML3 (11715873_a_at) / Fold change /veh OLFML3 (11715873_a_at) / RFU LOC100653217 /// NTM (11731650_a_at) / Fold change /veh LOC100653217 /// NTM (11731650_a_at) / RFU MAPK11 (11762145_a_at) / Fold change /veh MAPK11 (11762145_a_at) / RFU FIZ1 (11724087_x_at) / Fold change /veh FIZ1 (11724087_x_at) / RFU OASL (11726364_x_at) / Fold change /veh OASL (11726364_x_at) / RFU SOX15 (11748057_x_at) / Fold change /veh SOX15 (11748057_x_at) / RFU CD79A (11719716_a_at) / Fold change /veh CD79A (11719716_a_at) / RFU HIST1H1D (11736915_at) / Fold change /veh HIST1H1D (11736915_at) / RFU CASKIN2 (11723855_a_at) / Fold change /veh CASKIN2 (11723855_a_at) / RFU LOC730098 (11760151_x_at) / Fold change /veh LOC730098 (11760151_x_at) / RFU OR4N2 (11742367_at) / Fold change /veh OR4N2 (11742367_at) / RFU PRRT2 (11749266_a_at) / Fold change /veh PRRT2 (11749266_a_at) / RFU SNX32 (11753110_a_at) / Fold change /veh SNX32 (11753110_a_at) / RFU CDHR5 (11726645_a_at) / Fold change /veh CDHR5 (11726645_a_at) / RFU RCAN1 (11760418_a_at) / Fold change /veh RCAN1 (11760418_a_at) / RFU FAM167A (11723789_a_at) / Fold change /veh FAM167A (11723789_a_at) / RFU FAM26E (11764081_at) / Fold change /veh FAM26E (11764081_at) / RFU ISYNA1 (11749810_s_at) / Fold change /veh ISYNA1 (11749810_s_at) / RFU ACY1 (11761880_at) / Fold change /veh ACY1 (11761880_at) / RFU 11764098_at / Fold change /veh 11764098_at / RFU SAMD14 (11745864_x_at) / Fold change /veh SAMD14 (11745864_x_at) / RFU NPB (11741838_a_at) / Fold change /veh NPB (11741838_a_at) / RFU TMPRSS6 (11731388_a_at) / Fold change /veh TMPRSS6 (11731388_a_at) / RFU KRTAP10-2 (11738614_at) / Fold change /veh KRTAP10-2 (11738614_at) / RFU ARHGAP8 /// PRR5-ARHGAP8 (11727945_x_at) / Fold change /veh ARHGAP8 /// PRR5-ARHGAP8 (11727945_x_at) / RFU KRTAP5-7 /// NADSYN1 (11734609_at) / Fold change /veh KRTAP5-7 /// NADSYN1 (11734609_at) / RFU RASL12 (11751679_a_at) / Fold change /veh RASL12 (11751679_a_at) / RFU CDKN2B (11736163_a_at) / Fold change /veh CDKN2B (11736163_a_at) / RFU PRF1 (11729649_at) / Fold change /veh PRF1 (11729649_at) / RFU, ZNF638 /// ZNF638-IT1 / Fold change vs veh, ZNF638 /// ZNF638-IT1 / RFU, PANK3 / Fold change vs veh, PANK3 / RFU, SH3YL1 / Fold change vs veh, SH3YL1 / RFU, ZEB2 / Fold change vs veh, ZEB2 / RFU, NRIP1 / Fold change vs veh, NRIP1 / RFU, PTTG1IP / Fold change vs veh, PTTG1IP / RFU, CAPN2 / Fold change vs veh, CAPN2 / RFU, MED14 / Fold change vs veh, MED14 / RFU, SNORA58 / Fold change vs veh, SNORA58 / RFU, C1orf63 / Fold change vs veh, C1orf63 / RFU, LRRFIP1 / Fold change vs veh, LRRFIP1 / RFU, NDUFAF7 / Fold change vs veh, NDUFAF7 / RFU, SLC12A2 / Fold change vs veh, SLC12A2 / RFU, IBTK / Fold change vs veh, IBTK / RFU, ESF1 / Fold change vs veh, ESF1 / Fold change vs veh, TMEM50B / RFU, TAOK1 / Fold change vs veh, TAOK1 / RFU, ACBD3 / Fold change vs veh, ACBD3 / RFU, TMA16 / Fold change vs veh, TMA16 / RFU, RWDD3 / Fold change vs veh, RWDD3 / RFU, BCAT1 / Fold change vs veh, BCAT1 / RFU, EDEM3 / Fold change vs veh, EDEM3 / RFU, TMEM33 / Fold change vs veh, TMEM33 / RFU, WDR75 / Fold change vs veh, WDR75 / RFU, AHCTF1 / Fold change vs veh, AHCTF1 / RFU, TFRC / Fold change vs veh, TFRC / RFU, ZDHHC17 / Fold change vs veh, ZDHHC17 / RFU, NOM1 / Fold change vs veh, NOM1 / RFU, ARL8B / Fold change vs veh, ARL8B / RFU, ZBTB11 / Fold change vs veh, ZBTB11 / RFU, TAMM41 / Fold change vs veh, TAMM41 / RFU, KIAA1704 /// LOC100996395 / Fold change vs veh, KIAA1704 /// LOC100996395 / RFU, ING1 / Fold change vs veh, ING1 / RFU, TRMT61B / Fold change vs veh, TRMT61B / RFU, FUBP3 / Fold change vs veh, FUBP3 / RFU, TP53 / Fold change vs veh, TP53 / RFU, TNKS2 / Fold change vs veh, TNKS2 / RFU, ZFP14 / Fold change vs veh, ZFP14 / RFU, ACTR2 / Fold change vs veh, ACTR2 / RFU, PPP3R1 / Fold change vs veh, PPP3R1 / RFU, PIK3R1 / Fold change vs veh, PIK3R1 / RFU, HNRNPA1 / Fold change vs veh, HNRNPA1 / RFU, RNF170 / Fold change vs veh, RNF170 / RFU, ZNF28 / Fold change vs veh, ZNF28 / RFU, RNGTT / Fold change vs veh, RNGTT / RFU, OGT / Fold change vs veh, OGT / RFU, BRD1 / Fold change vs veh, BRD1 / RFU, MARS / Fold change vs veh, MARS / RFU, ZNF655 / Fold change vs veh, ZNF655 / RFU, FAHD1 / Fold change vs veh, FAHD1 / RFU, BDP1 / Fold change vs veh, BDP1 / RFU, LRRCC1 / Fold change vs veh, LRRCC1 / RFU, ARID1A / Fold change vs veh, ARID1A / RFU, ZNF146 / Fold change vs veh, ZNF146 / RFU, ZNF330 / Fold change vs veh, ZNF330 / RFU, GPN3 / Fold change vs veh, GPN3 / RFU, C9orf123 / Fold change vs veh, C9orf123 / RFU, N4BP2L2 / Fold change vs veh, N4BP2L2 / RFU, ARFIP1 / Fold change vs veh, ARFIP1 / RFU, FAM179B / Fold change vs veh, FAM179B / RFU, BCL10 / Fold change vs veh, BCL10 / RFU, UHRF1BP1L / Fold change vs veh, UHRF1BP1L / RFU, BET1 / Fold change vs veh, BET1 / RFU, CNOT2 / Fold change vs veh, CNOT2 / RFU, ZNF268 / Fold change vs veh, ZNF268 / Fold change vs veh, ZNF507 / RFU, DGCR2 / Fold change vs veh, DGCR2 / RFU, WDSUB1 / Fold change vs veh, WDSUB1 / Fold change vs veh, HSP90B1 /// MIR3652 / RFU, ADSS / Fold change vs veh, ADSS / RFU, GK / Fold change vs veh, GK / RFU, ZNF148 / Fold change vs veh, ZNF148 / RFU, TAF9 / Fold change vs veh, TAF9 / RFU, SLC1A5 / Fold change vs veh, SLC1A5 / RFU, SLMO2 / Fold change vs veh, SLMO2 / RFU, ABCC4 / Fold change vs veh, ABCC4 / RFU, LOC101060439 /// RAP1B / Fold change vs veh, LOC101060439 /// RAP1B / RFU, RFX7 / Fold change vs veh, RFX7 / RFU, GTPBP10 / Fold change vs veh, GTPBP10 / RFU, CNEP1R1 / Fold change vs veh, CNEP1R1 / RFU, BIVM-ERCC5 /// ERCC5 / Fold change vs veh, BIVM-ERCC5 /// ERCC5 / RFU, ILF3 / Fold change vs veh, ILF3 / RFU 11762660_at / Fold change /veh 11762660_at / RFU VCAN (11757783_s_at) / Fold change /veh VCAN (11757783_s_at) / RFU DDX43 (11728927_at) / Fold change /veh DDX43 (11728927_at) / RFU KRT8 (11758188_x_at) / Fold change /veh KRT8 (11758188_x_at) / RFU NKD1 (11759106_at) / Fold change /veh NKD1 (11759106_at) / RFU SRD5A1 (11742802_a_at) / Fold change /veh SRD5A1 (11742802_a_at) / RFU TPSAB1 /// TPSB2 (11721975_s_at) / Fold change /veh TPSAB1 /// TPSB2 (11721975_s_at) / RFU GSTM3 (11746129_a_at) / Fold change /veh GSTM3 (11746129_a_at) / RFU IL23R (11737362_x_at) / Fold change /veh IL23R (11737362_x_at) / RFU TMEM51 (11727254_a_at) / Fold change /veh TMEM51 (11727254_a_at) / RFU PIWIL2 (11732686_x_at) / Fold change /veh PIWIL2 (11732686_x_at) / RFU ORM1 (11744905_x_at) / Fold change /veh ORM1 (11744905_x_at) / RFU CCDC152 (11743942_at) / Fold change /veh CCDC152 (11743942_at) / RFU ECM1 (11717891_a_at) / Fold change /veh ECM1 (11717891_a_at) / RFU IL23R (11748794_a_at) / Fold change /veh IL23R (11748794_a_at) / RFU TNFAIP8L3 (11732012_x_at) / Fold change /veh TNFAIP8L3 (11732012_x_at) / RFU MBOAT4 (11741988_at) / Fold change /veh MBOAT4 (11741988_at) / RFU 11764193_at / Fold change /veh 11764193_at / RFU TMEM53 (11763286_at) / Fold change /veh TMEM53 (11763286_at) / RFU MAGEB2 (11727129_at) / Fold change /veh MAGEB2 (11727129_at) / RFU TMEM200A (11744735_a_at) / Fold change /veh TMEM200A (11744735_a_at) / RFU CCDC152 (11751479_a_at) / Fold change /veh CCDC152 (11751479_a_at) / RFU FAM211A (11726209_a_at) / Fold change /veh FAM211A (11726209_a_at) / RFU RGS16 (11746705_a_at) / Fold change /veh RGS16 (11746705_a_at) / RFU VCAN (11755009_s_at) / Fold change /veh VCAN (11755009_s_at) / RFU RHOB (11743442_s_at) / Fold change /veh RHOB (11743442_s_at) / RFU RGS16 (11720943_a_at) / Fold change /veh RGS16 (11720943_a_at) / RFU RGS16 (11720944_at) / Fold change /veh RGS16 (11720944_at) / RFU, VPS4B / Fold change vs veh, VPS4B / RFU, CREB1 / Fold change vs veh, CREB1 / RFU, DNAJC13 / Fold change vs veh, DNAJC13 / RFU, GNAQ / Fold change vs veh, GNAQ / RFU, CDK5R1 / Fold change vs veh, CDK5R1 / RFU, ZRANB3 / Fold change vs veh, ZRANB3 / RFU, CUL4A / Fold change vs veh, CUL4A / RFU, CCNY / Fold change vs veh, CCNY / RFU, UFL1 / Fold change vs veh, UFL1 / RFU, COG3 / Fold change vs veh, COG3 / RFU, DIAPH2 / Fold change vs veh, DIAPH2 / RFU, SKA2 / Fold change vs veh, SKA2 / RFU, AFF3 / Fold change vs veh, AFF3 / RFU, LMF1 / Fold change vs veh, LMF1 / RFU, IPO11 / Fold change vs veh, IPO11 / RFU, DFFB / Fold change vs veh, DFFB / RFU, FOXP1 / Fold change vs veh, FOXP1 / RFU, CARD8 / Fold change vs veh, CARD8 / RFU, STRN3 / Fold change vs veh, STRN3 / RFU, ADK / Fold change vs veh, ADK / RFU, RASSF2 / Fold change vs veh, RASSF2 / RFU, WIPF1 / Fold change vs veh, WIPF1 / RFU, LARP1B / Fold change vs veh, LARP1B / RFU, RASA1 / Fold change vs veh, RASA1 / RFU, RB1 / Fold change vs veh, RB1 / RFU, PPFIA1 / Fold change vs veh, PPFIA1 / RFU, MAT2A / Fold change vs veh, MAT2A / RFU, CCT5 / Fold change vs veh, CCT5 / RFU, WDR92 / Fold change vs veh, WDR92 / RFU, CUX1 / Fold change vs veh, CUX1 / RFU, TTC7A / Fold change vs veh, TTC7A / RFU, TMEM135 / Fold change vs veh, TMEM135 / RFU, DEPTOR / Fold change vs veh, DEPTOR / RFU, CPM / Fold change vs veh, CPM / RFU, DNAJB6 / Fold change vs veh, DNAJB6 / RFU, CACNA2D3 / Fold change vs veh, CACNA2D3 / RFU, DTX4 / Fold change vs veh, DTX4 / RFU, TFCP2 / Fold change vs veh, TFCP2 / RFU, GMCL1 /// GMCL1P1 / Fold change vs veh, GMCL1 /// GMCL1P1 / RFU, AEBP2 / Fold change vs veh, AEBP2 / RFU, SNHG1 /// SNORD22 /// SNORD25 /// SNORD26 /// SNORD27 /// SNORD28 /// SNORD29 /// SNORD31 / Fold change vs veh, SNHG1 /// SNORD22 /// SNORD25 /// SNORD26 /// SNORD27 /// SNORD28 /// SNORD29 /// SNORD31 / Fold change (Aza/veh), C12orf56 (ProbeSet 11735607_a_at) / Fold change (ACY-1035/veh), C12orf56 (ProbeSet 11735607_a_at) / Fold change (Aza/veh), FGFR1OP (ProbeSet 11751329_s_at) / Fold change (ACY-1035/veh), FGFR1OP (ProbeSet 11751329_s_at) / Fold change (Aza/veh), VPS36 (ProbeSet 11739960_a_at) / Fold change (ACY-1035/veh), VPS36 (ProbeSet 11739960_a_at) / RFU SYPL1 (11715823_x_at) / Fold change /veh SYPL1 (11715823_x_at) / RFU IGFBP7 (11715501_s_at) / Fold change /veh IGFBP7 (11715501_s_at) / RFU REEP3 (11722064_at) / Fold change /veh REEP3 (11722064_at) / RFU IGLL1 (11728026_x_at) / Fold change /veh IGLL1 (11728026_x_at): dose or concentration left out as unconfirmed
Details: MV-4-11 cells, 48 hours

## Nc1ccc(-c2cccs2)cc1NC(=O)c1ccc2c(c1)cc(C1CC1)n2CCN1CCOCC1 [ACY-1035]
  RFU LOC100653217 /// NTM (11731650_a_at): 9.86 RFU
